Tests used:
[1] = tested on: porcine articular cartilage; test: IL-1α-stimulated porcine articular cartilage degradation, GAG release (DMMB); format: cell-based; details: IL-1α 10 ng/ml, 3 days
Protocol: FIG. 7. Inhibition of IL-1a stimulated porcine articular cartilage degradation by N-terminal mutants of N-TIMP-3. Porcine articular cartilage pieces were cultured for three days. Cartilage was stimulated with IL-1α (10 ng/ml) with TIMPs at the concentrations indicated. Glycosaminoglycan (GAG) release in the media was measured by dimethyl methylene blue (DMMB).
Porcine articular cartilage from the metacarpophalangeal joints of 3-9 month old pigs is dissected into small shavings approximately 3 mm long and 2-3 mm wide. After dissection, the cartilage is allowed to rest for 24 h at 37° C. under 5% CO2 in DMEM containing penicillin-streptomycin, amphotericin B, and 5% fetal calf serum. The medium is then replaced with fresh media and the cartilage is rested for a further 24-48 h. […]
GAG released into the conditioned media is measured in duplicate using a modification of the dimethylmethylene blue (DMMB) assay as described in Farndale et al.. […] The % of total GAG released into the medium is calculated as follows: % of total GAG released=(total GAG in the medium)/(total GAG in the medium+total GAG remaining in the cartilage).
Porcine articular cartilage pieces were cultured for 3 days. […] Glycosaminoglycan (GAG) release in the media was measured by dimethyl methylene blue (DMMB).

[2] = tested on: bovine nasal cartilage explants; test: IL-1α-stimulated bovine nasal cartilage explants, GAG release; format: cell-based; details: 3 days
Protocol: (§1) GAG released into the conditioned media is measured in duplicate using a modification of the dimethylmethylene blue (DMMB) assay as described in Farndale et al.. Shark chondroitin sulfate (0-2.62 μg) is used as standard. The % of total GAG released into the medium is calculated as follows: % of total GAG released=(total GAG in the medium)/(total GAG in the medium+total GAG remaining in the cartilage).
Bovine nasal cartilage explants were stimulated with IL-1α in the presence or absence of N-TIMP-1, TIMP-2, or N-TIMP-3 for 3 days.

[3] = tested on: porcine articular cartilage; test: Retinoic acid-stimulated porcine articular cartilage, GAG release; format: cell-based
Protocol: Porcine articular cartilage from the metacarpophalangeal joints of 3-9 month old pigs is dissected into small shavings approximately 3 mm long and 2-3 mm wide. After dissection, the cartilage is allowed to rest for 24 h at 37° C. under 5% CO2 in DMEM containing penicillin-streptomycin, amphotericin B, and 5% fetal calf serum. The medium is then replaced with fresh media and the cartilage is rested for a further 24-48 h. Each cartilage piece is then placed in one well of a round bottom 96-well plate with 200 μl of serum-free DMEM with or without 10-100 ng/ml IL-1α or 1 μM retinoic acid and various concentrations of each TIMP-3 mutant. After 3 days, all of the conditioned media are harvested and stored at −20° C. until use.
as §1

[4] = target: soluble form of TACE (TACE R651) (Homo sapiens, UniProt P78536); test: Enzyme inhibition kinetic study, TACE; format: biochemical; details: 0.5 nM TACE, pH 9.0, 1 mM NaCl; for Inhibition of TACE activity (in words): FIG. 2B
Chain of soluble form of TACE (TACE R651) (P78536 215-651): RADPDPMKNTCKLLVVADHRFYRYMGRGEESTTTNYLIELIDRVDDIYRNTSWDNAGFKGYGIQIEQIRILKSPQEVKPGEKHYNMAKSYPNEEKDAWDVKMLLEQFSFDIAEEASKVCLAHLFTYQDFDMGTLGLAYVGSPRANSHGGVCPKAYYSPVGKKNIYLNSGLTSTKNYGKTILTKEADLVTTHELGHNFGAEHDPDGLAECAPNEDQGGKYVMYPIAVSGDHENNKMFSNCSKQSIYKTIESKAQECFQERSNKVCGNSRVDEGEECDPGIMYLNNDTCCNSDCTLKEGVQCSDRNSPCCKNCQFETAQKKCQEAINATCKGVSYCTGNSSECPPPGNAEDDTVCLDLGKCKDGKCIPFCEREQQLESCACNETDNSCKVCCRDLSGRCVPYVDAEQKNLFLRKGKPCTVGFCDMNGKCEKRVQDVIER
Protocol: FIG. 2. Inhibition of MMP and TACE by N-TIMP-3 and its mutants. A. Inhibition of MMP-14(CD) by wild-type and mutated N-TIMP-3. Open circles, wild-type N-TIMP-3; closed circles, T2G; and open squares, -1A. B. Comparison of the inhibition of TACE by wild-type N-TIMP-3, N-TIMP-1 and TAPI-2. The inhibitors were incubated with 0.5 nM TACE for 3 hr at room temperature, and the residual enzyme activity was measured with 10 μM Substrate III (R&D Systems). […] Open circles, N-TIMP-3; closed circles, TAPI-2; and open squares, N-TIMP-1. C. Inhibition of TACE (0.5 nM) by wild-type and mutated N-TIMP-3. Open circles, wild-type inhibitor; closed circles, T2G; and open squares, -1A.
Enzyme inhibition kinetic studies—Inhibition kinetic studies for MMPs and TACE were carried out as described previously (19, 27) with modifications. Purified N-TIMP-3 and mutants were dialyzed against 20 mM Tris-HCl (pH 7.0), 50 mM NaCl containing 20% glycerol, centrifuged at 14,000 rpm for 10 min to remove any precipitate, and protein concentration was re-measured before conducting inhibition assays. Since NaCl inhibits the activity of the TACE ectodomain in vitro (28), we adjusted the final concentration of NaCl to 1 mM in all assays with TACE. Equal volumes (10% of total assay volume) of diluted solutions of N-TIMP-3 and mutants were added to TACE assays, resulting in a final pH of 8.8.
where v is the experimentally determined reaction velocity, v0 is the uninhibited activity, E is enzyme concentration, I is inhibitor concentration, K is the apparent inhibition constant (Ki^(app)) and h is the Hill coefficient.
The inhibitory activities of the mutants were also compared with that of wild-type N-TIMP-3 against a soluble form of TACE in which the transmembrane and C-terminal cytoplasmic domains are deleted (TACE R651; (28)). […] The inhibition curve of TACE by wild-type N-TIMP-3 is sigmoid, in striking contrast with the inhibition by TAPI-2 and with the inhibition of MMPs by N-TIMP-3 and N-TIMP-1 (FIGS. 2A, 2B; (31)). Sigmoid inhibition curves were also obtained for TACE with the T2G and -1A mutants of N-TIMP-3 (FIG. 2C).

[5] = tested on: aggrecanase activity in IL-1α- and retinoic acid-stimulated cartilage; test: Aggrecanase-generated aggrecan fragments in cartilage conditioned media, Western analysis; format: cell-based; details: 1 μM
Source text: Aggrecan fragments released into the conditioned medium are deglycosylated by digestion with chondroitinase ABC and keratanase and the samples are subjected to SDS/PAGE and Western blotting analysis as described by Little et al.. The primary antibodies used to detect aggrecanase-generated and MMP-generated aggrecan fragments are BC-3 and BC-14, respectively. Antigen-antibody complexes are detected by anti-mouse AP-linked donkey antibody and the AP substrate.
Conditioned media from the above experiments were analyzed by monoclonal antibodies that recognize either the aggrecanase-generated aggrecan neoepitope ARGSV or the MMP-generated aggrecan neoepitope FFGVG. In concordance with GAG release, there was an increase in the amount of aggrecanase-generated aggrecan fragments released upon treatment with either stimulus, but no MMP-generated fragments were detected.

THP-1 cells = test: Inhibition of TNF-α shedding from THP-1 cells (ELISA); format: cell-based, human; details: 100 ng/ml PMA, 6 h, 50 to 500 nM
Protocol: FIG. 3. Effects of mutations in N-TIMP-3 on inhibition of cellular shedding of TNF-α. THP-1 cells (2.5×10^6/ml) growing in serum-free RPMI-1640 medium were stimulated with 100 ng/ml PMA for 20 min before adding various concentrations of N-TIMP-3 (wild-type and mutants). Cells were allowed to grow for another 6 hr and conditioned media were collected for the ELISA assays.
Inhibition of TNF-α shedding from THP-1 cells—All TIMP solutions were dialyzed against 20 mM Tris-HCl (pH 7.0), 150 mM NaCl and 20% glycerol before use. Human monocyte THP-1 cells cultured in RPMI-1640 medium supplemented with 5% fetal calf serum were harvested, extensively washed and reseeded into serum-free medium at 2.5×10^6 cells/ml. […] The amount of soluble TNF-α released into the medium was measured using sandwich enzyme-linked immunosorbent assay, as described by Engelberts et al. (30) with modifications. The released TNF-α was absorbed to microtiter plates coated with mouse monoclonal anti-human TNF-α antibody BD551220 (1:200 dilution), and the bound TNF-α was detected using biotinylated mouse monoclonal anti-human TNF-α: antibody BD554511 (1:500 dilution) and streptavidin conjugated with horse radish peroxidase, and 3,3′,5,5′-tetramethylbenzidine as peroxidase substrate (KPL, Guildford, UK). The plates were read at 450 nm with an ELX808 plate reader (BIO-TEK Instruments Inc). […]

Compound | Inhibition of IL-1α stimulated cartilage degradation (GAG release) [1] | Inhibition of IL-1α-stimulated GAG release [2] | Inhibition of retinoic acid-stimulated GAG release [3] | Inhibition of TACE activity (in words) [4] | Release of aggrecanase-generated aggrecan fragments [5] | Inhibition of PMA-stimulated release of TNF-α (THP-1 cells) | h (Hill coefficient) for TACE inhibition ([4]; Table II, fit with equation 3) | Ki ([4]; Table II, fit with equation 3, read-out: Ki(app) TACE) [nM]
TIMP-1: tissue inhibitor of metalloproteinases-1 [reference compound] | did not | – | – | – | – | – | – | –
N-TIMP-1: N-terminal inhibitory domain of TIMP-1, expressed in E. coli and folded in vitro [reference compound] | – | not effective even at the concentration of 1 μM | did not inhibit | minimal inhibitory activity | not effective | no effect | – | –
CC(C)CC(CC(=O)NO)C(=O)NC(C(=O)NC(C)C(=O)NCCN)C(C)(C)C (stereo not drawn) [TAPI-2, HONHCOCH2CH(CH2CH(CH3)2)—CO-t-Butyl-Gly-Ala-NHCH2CH2NH2, reference compound] | – | – | – | effectively inhibited | – | – | 1 | 4.28 ± 0.001

— US20090318342A1, “Compounds” (IMPERIAL INNOVATIONS LIMITED, priority 2005, published 2009)
